{"source": "ChEMBL document CHEMBL4477213", "about": "“Discovery and Optimization of Quinazolinone-pyrrolopyrrolones as Potent and Orally Bioavailable Pan-Pim Kinase Inhibitors” (J Med Chem, 2016)", "key": {"[1]": {"test": "Volume of distribution at steady state in rat at 2 mg/kg, iv or 5 mg/kg, po", "assay_type": "ADME, organism-based", "settings": "in vivo, read-out: Vdss"}, "[2]": {"test": "Oral bioavailability in rat at 5 mg/kg", "assay_type": "ADME, organism-based", "settings": "in vivo"}, "[3]": {"test": "Apparent permeability in pig LLC-PK1 cells", "assay_type": "ADME, cell-based, Sus scrofa"}, "Bos taurus": {"species_on_record": "Bos taurus", "test": "Inhibition of bovine I1-receptor assessed as remaining enzyme activity at 10 uM relative to untreated control"}, "[4]": {"biological_target": "Dual specificity protein kinase CLK4 (Homo sapiens) (UniProt Q9HAZ1)", "sequence (Q9HAZ1 whole entry, looked up, the tested form may be a part)": "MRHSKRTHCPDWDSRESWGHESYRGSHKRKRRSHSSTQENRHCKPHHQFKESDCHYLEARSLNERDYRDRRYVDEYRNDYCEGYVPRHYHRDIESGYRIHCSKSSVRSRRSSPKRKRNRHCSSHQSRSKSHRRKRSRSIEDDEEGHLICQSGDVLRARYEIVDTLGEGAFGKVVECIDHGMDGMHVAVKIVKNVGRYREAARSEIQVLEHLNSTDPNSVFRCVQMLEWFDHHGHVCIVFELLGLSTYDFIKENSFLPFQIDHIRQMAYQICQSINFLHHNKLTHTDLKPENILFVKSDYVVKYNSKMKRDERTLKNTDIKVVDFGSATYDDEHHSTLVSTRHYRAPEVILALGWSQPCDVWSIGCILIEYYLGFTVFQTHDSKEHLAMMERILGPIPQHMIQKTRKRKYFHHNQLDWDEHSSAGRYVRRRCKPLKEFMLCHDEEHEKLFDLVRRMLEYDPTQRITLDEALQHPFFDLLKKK", "test": "Inhibition of human CLK4 (135 to 481 residues) expressed in bacterial system assessed as remaining enzyme activity at 1 uM by KINOMEScan assay relative to control"}, "KMS-12-BM [5]": {"tested_on": "KMS-12-BM", "test": "Antitumor activity against human KMS-12-BM cells xenografted in po dosed SCID-bg mouse assessed as tumor growth inhibition administered once daily measured twice per week", "assay_type": "functional, organism-based"}, "KMS-12-BM [6]": {"tested_on": "KMS-12-BM", "test": "Antitumor activity against human KMS-12-BM cells xenografted in SCID-bg mouse assessed as tumor growth inhibition at 10 mg/kg, po qd measured twice per week", "assay_type": "functional", "settings": "read-out: TGI"}, "KMS-12-BM [7]": {"tested_on": "KMS-12-BM", "test": "Antitumor activity against human KMS-12-BM cells xenografted in SCID-bg mouse assessed as tumor growth inhibition at 25 mg/kg, po qd measured twice per week", "assay_type": "functional", "settings": "read-out: TGI"}, "KMS-12-BM [8]": {"tested_on": "KMS-12-BM", "test": "Antitumor activity against human KMS-12-BM cells xenografted in SCID-bg mouse assessed as tumor growth inhibition at 50 mg/kg, po qd measured twice per week", "assay_type": "functional", "settings": "read-out: TGI"}, "Mus musculus [9]": {"tested_on": "Mus musculus", "test": "In vivo inhibition of pan Pim in SCID-bg mouse xenografted with human KMS-12-BM cells assessed as phosphorylation of BAD peptide at Serine 112 residue at 10 mg/kg, po qd measured at 1 hr post dose relative to control", "assay_type": "functional", "parameters": "scale not given: the % may be the effect or the level left"}, "Mus musculus [10]": {"tested_on": "Mus musculus", "test": "In vivo inhibition of pan Pim in SCID-bg mouse xenografted with human KMS-12-BM cells assessed as phosphorylation of BAD peptide at Serine 112 residue at 50 mg/kg, po qd measured at 1 hr post dose relative to control", "assay_type": "functional", "parameters": "scale not given: the % may be the effect or the level left"}, "Mus musculus [11]": {"tested_on": "Mus musculus", "test": "In vivo inhibition of pan Pim in SCID-bg mouse xenografted with human KMS-12-BM cells assessed as phosphorylation of BAD peptide at Serine 112 residue at 25 mg/kg, po qd measured at 4 hrs post dose relative to control", "assay_type": "functional", "parameters": "scale not given: the % may be the effect or the level left"}, "Mus musculus [12]": {"tested_on": "Mus musculus", "test": "In vivo inhibition of pan Pim in SCID-bg mouse xenografted with human KMS-12-BM cells assessed as phosphorylation of BAD peptide at Serine 112 residue at 50 mg/kg, po qd measured at 4 hrs post dose relative to control", "assay_type": "functional", "parameters": "scale not given: the % may be the effect or the level left"}, "Mus musculus [13]": {"tested_on": "Mus musculus", "test": "In vivo inhibition of pan Pim in SCID-bg mouse xenografted with human KMS-12-BM cells assessed as phosphorylation of BAD peptide at Serine 112 residue at 100 mg/kg, po qd measured at 4 hrs post dose relative to control", "assay_type": "functional", "parameters": "scale not given: the % may be the effect or the level left"}, "Mus musculus [14]": {"tested_on": "Mus musculus", "test": "In vivo inhibition of pan Pim in SCID-bg mouse xenografted with human KMS-12-BM cells assessed as phosphorylation of BAD peptide at Serine 112 residue at 10 mg/kg, po qd measured at 8 hrs post dose relative to control", "assay_type": "functional", "parameters": "scale not given: the % may be the effect or the level left"}, "Mus musculus [15]": {"tested_on": "Mus musculus", "test": "In vivo inhibition of pan Pim in SCID-bg mouse xenografted with human KMS-12-BM cells assessed as phosphorylation of BAD peptide at Serine 112 residue at 50 mg/kg, po qd measured at 8 hrs post dose relative to control", "assay_type": "functional", "parameters": "scale not given: the % may be the effect or the level left"}, "Mus musculus [16]": {"tested_on": "Mus musculus", "test": "In vivo inhibition of pan Pim in SCID-bg mouse xenografted with human KMS-12-BM cells assessed as phosphorylation of BAD peptide at Serine 112 residue at 100 mg/kg, po qd measured at 8 hrs post dose relative to control", "assay_type": "functional", "parameters": "scale not given: the % may be the effect or the level left"}, "Mus musculus [17]": {"tested_on": "Mus musculus", "test": "In vivo inhibition of pan Pim in SCID-bg mouse xenografted with human KMS-12-BM cells assessed as phosphorylation of BAD peptide at Serine 112 residue at 10 mg/kg, po qd measured at 12 hrs post dose relative to control", "assay_type": "functional", "parameters": "scale not given: the % may be the effect or the level left"}, "Mus musculus [18]": {"tested_on": "Mus musculus", "test": "In vivo inhibition of pan Pim in SCID-bg mouse xenografted with human KMS-12-BM cells assessed as phosphorylation of BAD peptide at Serine 112 residue at 50 mg/kg, po qd measured at 12 hrs post dose relative to control", "assay_type": "functional", "parameters": "scale not given: the % may be the effect or the level left"}, "Mus musculus [19]": {"tested_on": "Mus musculus", "test": "In vivo inhibition of pan Pim in SCID-bg mouse xenografted with human KMS-12-BM cells assessed as phosphorylation of BAD peptide at Serine 112 residue at 100 mg/kg, po qd measured at 12 hrs post dose relative to control", "assay_type": "functional", "parameters": "scale not given: the % may be the effect or the level left"}, "Mus musculus [20]": {"tested_on": "Mus musculus", "test": "In vivo inhibition of pan Pim in SCID-bg mouse xenografted with human KMS-12-BM cells assessed as phosphorylation of BAD peptide at Serine 112 residue at 10 mg/kg, po qd measured at 24 hrs post dose relative to control", "assay_type": "functional", "parameters": "scale not given: the % may be the effect or the level left"}, "Mus musculus [21]": {"tested_on": "Mus musculus", "test": "In vivo inhibition of pan Pim in SCID-bg mouse xenografted with human KMS-12-BM cells assessed as phosphorylation of BAD peptide at Serine 112 residue at 25 mg/kg, po qd measured at 24 hrs post dose relative to control", "assay_type": "functional", "parameters": "scale not given: the % may be the effect or the level left"}, "Mus musculus [22]": {"tested_on": "Mus musculus", "test": "In vivo inhibition of pan Pim in SCID-bg mouse xenografted with human KMS-12-BM cells assessed as phosphorylation of BAD peptide at Serine 112 residue at 100 mg/kg, po qd measured at 24 hrs post dose relative to control", "assay_type": "functional", "parameters": "scale not given: the % may be the effect or the level left"}, "Mus musculus [23]": {"tested_on": "Mus musculus", "test": "In vivo inhibition of pan Pim in SCID-bg mouse xenografted with human KMS-12-BM cells assessed as plasma concentration required for reduction of BAD peptide phosphorylation at Serine 112 residue at 10 to 100 mg/kg, po qd measured after 1 to 24 hrs post dose", "assay_type": "functional, organism-based"}, "[24]": {"test": "Fraction unbound in mouse plasma", "assay_type": "ADME, cell-free"}, "[25]": {"test": "Aqueous solubility of the compound in FaSIF at pH 6.8 after 1 hr by LC/MS analysis"}}}
{"smiles": "C[C@H]1NC(=O)c2cc(-c3cccc4c(=O)n(C)c(NC(C)(C)C)nc34)[nH]c21", "values": [{"measurement": "Vd", "setting": "[1]", "value": 1.5, "unit": "L/kg"}, {"measurement": "bioavailability", "setting": "[2]", "value": 39, "unit": "%"}, {"measurement": "Papp", "setting": "[3]", "value": 44, "unit": "×10⁻⁶ cm/s"}, {"measurement": "Activity", "setting": "Bos taurus", "value": "< 10", "unit": "%"}, {"measurement": "Activity", "setting": "[4]", "value": 0.2, "unit": "%"}, {"measurement": "TGI", "setting": "KMS-12-BM [5]", "value": "Dose-dependent effect"}, {"measurement": "inhibition in vivo at 10 mg/kg", "setting": "KMS-12-BM [6]", "value": 30, "unit": "%"}, {"measurement": "inhibition in vivo at 25 mg/kg", "setting": "KMS-12-BM [7]", "value": 65, "unit": "%"}, {"measurement": "inhibition in vivo at 50 mg/kg", "setting": "KMS-12-BM [8]", "value": 93, "unit": "%"}, {"measurement": "Activity", "setting": "Mus musculus [9]", "value": 52, "unit": "%"}, {"measurement": "Activity", "setting": "Mus musculus [10]", "value": 61, "unit": "%"}, {"measurement": "Activity", "setting": "Mus musculus [11]", "value": 60, "unit": "%"}, {"measurement": "Activity", "setting": "Mus musculus [12]", "value": 66, "unit": "%"}, {"measurement": "Activity", "setting": "Mus musculus [13]", "value": 63, "unit": "%"}, {"measurement": "Activity", "setting": "Mus musculus [14]", "value": 41, "unit": "%"}, {"measurement": "Activity", "setting": "Mus musculus [15]", "value": 85, "unit": "%"}, {"measurement": "Activity", "setting": "Mus musculus [16]", "value": 70, "unit": "%"}, {"measurement": "Activity", "setting": "Mus musculus [17]", "value": 34, "unit": "%"}, {"measurement": "Activity", "setting": "Mus musculus [18]", "value": 65, "unit": "%"}, {"measurement": "Activity", "setting": "Mus musculus [19]", "value": 66, "unit": "%"}, {"measurement": "Activity", "setting": "Mus musculus [20]", "value": 0, "unit": "%"}, {"measurement": "Activity", "setting": "Mus musculus [21]", "value": 0, "unit": "%"}, {"measurement": "Activity", "setting": "Mus musculus [22]", "value": 21, "unit": "%"}, {"measurement": "EC50", "setting": "Mus musculus [23]", "value": 0.254, "unit": "µM"}, {"measurement": "Cp(f)", "setting": "[24]", "value": 21.4, "unit": "nM"}, {"measurement": "solubility at 1 h", "setting": "[25]", "value": 104, "unit": "µM"}]}
